# Reference: US20180002247A1, “METHODS FOR CHIRAL RESOLUTION OF TROLOX” (BIOELECTRON TECHNOLOGY CORPORATION, priority 2014, published 2018)
# Experiment: Solubility assessment of (R)-Trolox in 12 solvents at 40° C.
# Type: physicochemical
# Conditions: for solubility: organic solvent or mixture, thermodynamic from solid
# Method: (R)-Trolox (97.89% ee, chemical purity>99.99% AUC) (100 mg) was weighed out in 12 different vials. 12 different solvents were added (one volume at a time) to the different vials and the mixture was maintained at 40° C. The volume of each solvent required to dissolve 100 mg of (R)-Trolox was recorded and the solubility was subsequently calculated.
smiles,measurement,setting,value
"Cc1c(C)c2c(c(C)c1O)CCC(C)(C(=O)O)O2 (racemic) [(R)-Trolox, 6-hydroxy-2,5,7,8-tetramethylchroman-2-carboxylic acid]",Solubility (in words),all solvents except for pure water,highly soluble
same,solubility,solvent 2-MeTHF,524 mg/mL
same,solubility,solvent 5% water/ACN,459 mg/mL
same,solubility,solvent 5% water/EtOH,854 mg/mL
same,solubility,solvent 5% water/IPA,978 mg/mL
same,solubility,solvent 5% water/MeOH,1040 mg/mL
same,solubility,solvent ACN,195 mg/mL
same,solubility,solvent EtOAc,209 mg/mL
same,solubility,solvent EtOH,494 mg/mL
same,solubility,solvent IPA,523 mg/mL
same,solubility,solvent IPAc,252 mg/mL
same,solubility,solvent MeOH,1000 mg/mL
same,Solubility at 40° C.,solvent water,not soluble
